Assay results from the Kinase Knowledgebase extract (Sharma et al. 2016).

What follows are compounds tested against EGFR, P00533 [L858R].
Chain of EGFR, P00533 [L858R] (P00533 whole entry L858R, looked up): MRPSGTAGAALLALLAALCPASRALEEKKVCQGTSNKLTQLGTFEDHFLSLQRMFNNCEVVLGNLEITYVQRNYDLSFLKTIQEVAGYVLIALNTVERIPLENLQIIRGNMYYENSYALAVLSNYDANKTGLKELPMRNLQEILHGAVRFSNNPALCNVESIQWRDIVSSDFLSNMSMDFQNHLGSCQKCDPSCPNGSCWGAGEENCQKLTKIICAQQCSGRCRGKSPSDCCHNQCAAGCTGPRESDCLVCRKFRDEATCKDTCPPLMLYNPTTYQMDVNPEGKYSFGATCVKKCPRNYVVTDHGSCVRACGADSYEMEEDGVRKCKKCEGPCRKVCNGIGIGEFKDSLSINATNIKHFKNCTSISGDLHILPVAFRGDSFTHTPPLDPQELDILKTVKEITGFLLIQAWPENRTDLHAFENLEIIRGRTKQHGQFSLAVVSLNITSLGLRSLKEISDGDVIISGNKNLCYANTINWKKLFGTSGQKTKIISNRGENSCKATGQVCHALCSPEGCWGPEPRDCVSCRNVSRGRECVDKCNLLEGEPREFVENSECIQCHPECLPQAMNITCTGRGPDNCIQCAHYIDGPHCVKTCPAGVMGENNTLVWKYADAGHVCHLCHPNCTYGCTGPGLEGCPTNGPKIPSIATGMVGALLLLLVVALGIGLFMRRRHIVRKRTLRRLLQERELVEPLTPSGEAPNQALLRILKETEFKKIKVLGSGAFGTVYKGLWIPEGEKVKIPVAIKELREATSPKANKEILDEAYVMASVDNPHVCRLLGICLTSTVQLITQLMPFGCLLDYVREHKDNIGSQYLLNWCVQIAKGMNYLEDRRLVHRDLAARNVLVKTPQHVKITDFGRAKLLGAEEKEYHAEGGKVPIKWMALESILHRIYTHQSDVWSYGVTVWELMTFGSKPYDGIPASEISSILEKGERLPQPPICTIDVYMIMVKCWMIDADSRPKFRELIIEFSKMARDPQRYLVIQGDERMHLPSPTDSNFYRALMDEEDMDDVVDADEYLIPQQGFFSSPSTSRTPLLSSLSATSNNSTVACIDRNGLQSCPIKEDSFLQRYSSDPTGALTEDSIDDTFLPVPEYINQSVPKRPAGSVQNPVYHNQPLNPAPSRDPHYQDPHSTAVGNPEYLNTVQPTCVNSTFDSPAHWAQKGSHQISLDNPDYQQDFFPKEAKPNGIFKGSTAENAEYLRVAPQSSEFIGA

| SMILES | IC50 [nM] |
| --- | --- |
| O=C(Nc1cccc(Nc2cc(Nc3cccc(C(F)(F)F)c3)ncn2)c1)C1CC1 | 63 |

What follows are compounds tested against EGFR, P00533 [L861Q].
Chain of EGFR, P00533 [L861Q] (P00533 whole entry L861Q, looked up): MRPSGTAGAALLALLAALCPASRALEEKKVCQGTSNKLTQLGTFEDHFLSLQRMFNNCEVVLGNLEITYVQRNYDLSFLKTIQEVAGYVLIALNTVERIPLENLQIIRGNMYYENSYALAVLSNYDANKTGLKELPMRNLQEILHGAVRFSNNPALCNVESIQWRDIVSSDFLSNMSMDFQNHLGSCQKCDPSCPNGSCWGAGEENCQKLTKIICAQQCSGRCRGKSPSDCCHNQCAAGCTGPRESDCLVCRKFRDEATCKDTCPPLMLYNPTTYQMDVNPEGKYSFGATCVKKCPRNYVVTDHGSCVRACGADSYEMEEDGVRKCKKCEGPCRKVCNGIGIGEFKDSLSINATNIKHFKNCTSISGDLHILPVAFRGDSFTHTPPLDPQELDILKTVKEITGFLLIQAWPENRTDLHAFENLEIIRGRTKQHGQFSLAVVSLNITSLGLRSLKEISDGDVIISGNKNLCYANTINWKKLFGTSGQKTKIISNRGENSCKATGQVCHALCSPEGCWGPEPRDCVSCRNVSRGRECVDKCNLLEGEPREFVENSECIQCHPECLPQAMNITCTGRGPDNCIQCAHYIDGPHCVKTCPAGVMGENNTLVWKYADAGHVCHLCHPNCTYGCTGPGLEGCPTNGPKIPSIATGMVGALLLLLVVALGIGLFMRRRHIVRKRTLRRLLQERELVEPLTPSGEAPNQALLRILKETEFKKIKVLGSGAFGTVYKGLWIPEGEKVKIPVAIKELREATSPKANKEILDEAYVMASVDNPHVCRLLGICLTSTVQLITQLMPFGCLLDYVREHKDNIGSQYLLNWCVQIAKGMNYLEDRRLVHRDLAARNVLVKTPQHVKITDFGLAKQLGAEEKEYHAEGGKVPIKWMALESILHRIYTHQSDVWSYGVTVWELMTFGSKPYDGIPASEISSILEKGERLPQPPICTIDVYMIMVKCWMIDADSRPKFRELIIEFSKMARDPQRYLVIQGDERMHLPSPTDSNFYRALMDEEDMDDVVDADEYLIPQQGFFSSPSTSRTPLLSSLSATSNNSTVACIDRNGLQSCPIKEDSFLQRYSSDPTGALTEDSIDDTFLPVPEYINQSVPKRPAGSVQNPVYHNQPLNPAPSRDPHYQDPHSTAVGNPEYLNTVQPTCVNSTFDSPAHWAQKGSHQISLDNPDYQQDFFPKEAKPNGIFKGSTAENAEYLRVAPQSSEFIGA

| SMILES | IC50 [nM] |
| --- | --- |
| O=C(Nc1cccc(Nc2cc(Nc3cccc(C(F)(F)F)c3)ncn2)c1)C1CC1 | 4 |

These compounds were tested against EGFR (UniProt P00533).
Chain of EGFR (P00533 whole entry, looked up): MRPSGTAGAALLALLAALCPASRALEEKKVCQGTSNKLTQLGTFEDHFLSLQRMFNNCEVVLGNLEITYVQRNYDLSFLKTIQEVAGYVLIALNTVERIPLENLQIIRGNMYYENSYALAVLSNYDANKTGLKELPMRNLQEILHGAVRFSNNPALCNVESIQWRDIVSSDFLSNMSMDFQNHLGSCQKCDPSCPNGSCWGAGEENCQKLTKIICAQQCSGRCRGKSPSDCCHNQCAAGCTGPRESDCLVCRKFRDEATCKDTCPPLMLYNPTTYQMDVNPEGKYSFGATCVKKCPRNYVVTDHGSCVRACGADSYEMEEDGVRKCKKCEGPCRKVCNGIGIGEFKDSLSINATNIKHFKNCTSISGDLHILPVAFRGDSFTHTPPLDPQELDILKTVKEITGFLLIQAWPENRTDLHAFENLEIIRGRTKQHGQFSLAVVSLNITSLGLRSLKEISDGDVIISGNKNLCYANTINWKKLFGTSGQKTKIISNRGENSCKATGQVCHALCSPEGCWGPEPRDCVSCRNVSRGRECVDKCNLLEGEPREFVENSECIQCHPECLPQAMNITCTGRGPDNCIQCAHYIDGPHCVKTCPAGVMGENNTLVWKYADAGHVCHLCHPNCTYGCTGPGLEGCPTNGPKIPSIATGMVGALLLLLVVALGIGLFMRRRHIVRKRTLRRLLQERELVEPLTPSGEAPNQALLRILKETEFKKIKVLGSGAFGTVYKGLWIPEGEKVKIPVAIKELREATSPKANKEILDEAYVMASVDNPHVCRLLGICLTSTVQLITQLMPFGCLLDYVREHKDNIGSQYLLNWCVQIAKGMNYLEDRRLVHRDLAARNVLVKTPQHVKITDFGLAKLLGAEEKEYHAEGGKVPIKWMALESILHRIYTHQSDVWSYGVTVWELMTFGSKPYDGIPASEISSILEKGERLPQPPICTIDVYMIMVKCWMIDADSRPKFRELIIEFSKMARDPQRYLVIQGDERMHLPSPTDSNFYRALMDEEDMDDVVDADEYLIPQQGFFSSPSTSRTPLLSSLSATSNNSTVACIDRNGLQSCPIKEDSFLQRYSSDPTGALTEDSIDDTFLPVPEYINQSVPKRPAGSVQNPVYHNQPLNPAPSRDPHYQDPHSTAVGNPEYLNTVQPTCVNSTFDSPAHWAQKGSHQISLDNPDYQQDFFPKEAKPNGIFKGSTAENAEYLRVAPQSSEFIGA

| SMILES | IC50 [nM] |
| --- | --- |
| FC(F)(F)c1cccc(Nc2cc(Nc3cccc(C(F)(F)F)c3)ncn2)c1 | 32 |
| O=C(Nc1cccc(Nc2cc(Nc3ccccc3Cl)ncn2)c1)C1CC1 | 35 |
| FC(F)(F)c1cccc(Oc2cc(Oc3cccc(C(F)(F)F)c3)ncn2)c1 | > 10000 |
| O=C(Nc1cccc(Nc2cc(Nc3cccc(C(F)(F)F)c3)ncn2)c1)C1CC1 | 21 |
| COc1ccc(OC)c(-c2cc(Nc3cccc(NC(=O)C4CC4)c3)ncn2)c1 | > 10000 |
| COc1ccc(Cl)cc1-c1cc(Nc2cccc(NC(=O)C3CC3)c2)ncn1 | > 10000 |
| Cc1ccccc1Nc1cc(Nc2cccc(NC(=O)C3CC3)c2)ncn1 | 7 |
| CN(c1cccc(NC(=O)C2CC2)c1)c1cc(Nc2cccc(C(F)(F)F)c2)ncn1 | > 10000 |
| O=C(Nc1cccc(Nc2cc(Oc3cccc(C(F)(F)F)c3)ncn2)c1)C1CC1 | 14 |
| CN(c1cccc(C(F)(F)F)c1)c1cc(Nc2cccc(NC(=O)C3CC3)c2)ncn1 | 19 |
| COc1ccc(Nc2cc(Nc3cccc(C(F)(F)F)c3)ncn2)cc1NC(=O)C1CCCCC1 | 3600 |
| O=C(Nc1cccc(Nc2ccnc(Nc3cccc(C(F)(F)F)c3)n2)c1)C1CC1 | > 10000 |
| COc1ccc(Nc2cc(Nc3cccc(C(F)(F)F)c3)ncn2)cc1NC(=O)C1CC1 | 120 |
| O=C(Nc1cccc(Nc2cc(NCc3ccc(C(F)(F)F)cc3)ncn2)c1)C1CC1 | 1760 |
| FC(F)(F)c1cccc(Nc2ccnc(Nc3cccc(C(F)(F)F)c3)c2)c1 | > 10000 |
| O=C(Nc1cccc(Nc2nccc(Nc3cccc(C(F)(F)F)c3)n2)c1)C1CC1 | > 10000 |
